Measured values published in ChEMBL document CHEMBL1201862, “PubChem BioAssay data set” (2004).
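Five concentrations, 48 hours, 96-well plates. Here, GI50 denotes the concentration required for 50% inhibition of growth.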 Calls of active or inactive are those of the source. Rule as the data show it: active = GI50 up to about 1.1 µM and inactive = higher.

Experiments:
Assay in all cases: inhibition of tumour cell growth, NCI panel, 48 h
[1] = system: ACHN
[2] = system: BT-549
[3] = system: DU-145
[4] = system: HCT-15
[5] = system: IGROV-1
[6] = system: K562
[7] = system: KM12
[8] = system: NCI-H226
[9] = system: NCI-H23
[10] = system: NCI-H460
[11] = system: NCI/ADR-RES
[12] = system: SF-295
[13] = system: SR
[14] = system: SW-620
[15] = system: TK-10
[16] = system: U-251
[17] = system: UO-31
[18] = system: SK-MEL-5

Measured: GI50

N#Cc1c(Cl)c2ccccc2n2c1nc1ccccc12
inactive: [1] 18 µM | [2] 71 µM | [3] 27.7 µM | [5] 13.9 µM | [6] 18.9 µM | [7] 34.1 µM | [8] 21.6 µM | [9] 24.2 µM | [10] 69.7 µM | [11] 23.3 µM | [12] 59.7 µM | [13] 50 µM | [14] 29.1 µM | [15] 19.4 µM | [16] 92.7 µM | [17] 16.1 µM
15.2 µM: [4]

O=c1oc2ccccc2n1CCCn1c(=O)oc2ccccc21
> 100 µM: [4]
inactive: [1] 92.5 µM | [2] > 100 µM | [3] > 100 µM | [5] > 100 µM | [6] > 100 µM | [7] > 100 µM | [8] > 100 µM | [9] > 100 µM | [10] > 100 µM | [11] > 100 µM | [12] > 100 µM | [18] > 100 µM | [13] > 100 µM | [14] > 100 µM | [15] > 100 µM | [16] 47.9 µM

Cc1ccc(C(=O)N/N=C(\N=N\c2ccc(C(=O)O)cc2)c2ccc(N(CCC#N)CCC#N)cc2C)cc1
inactive: [1] > 100 µM | [2] 83 µM | [3] > 100 µM | [6] > 100 µM | [7] > 100 µM | [8] > 100 µM | [9] > 100 µM | [10] > 100 µM | [11] > 100 µM | [12] > 100 µM | [18] > 100 µM | [13] > 100 µM | [14] > 100 µM | [15] > 100 µM | [16] > 100 µM | [17] > 100 µM
> 100 µM: [4]

COC(=O)C(Cc1ccccc1)NC(=O)CSc1nnc(COc2ccc(Cl)cc2)n1-c1ccccc1 (stereo unspecified)
35.2 µM: [4]
inactive: [1] 16.4 µM | [2] 27.4 µM | [3] 34.8 µM | [5] 27.5 µM | [6] 27.4 µM | [7] 37.7 µM | [8] 40.6 µM | [9] 22.3 µM | [10] 16.5 µM | [11] 21.8 µM | [18] 17.1 µM | [13] 5.41 µM | [14] 35.9 µM | [15] 19.4 µM | [16] 18.5 µM | [17] 1.83 µM

Cc1cnoc1NS(=O)(=O)c1ccc(Nc2nnc(/C=C/c3c(O)ccc4ccccc34)c(=O)n2N)cc1
inactive: [1] 22.2 µM | [2] 18.7 µM | [3] 43.8 µM | [5] 12.8 µM | [6] 24.2 µM | [9] 7.73 µM | [11] 11.5 µM | [12] 64 µM | [13] 21.8 µM | [14] 32.7 µM | [17] 28.7 µM
6.37 µM: [4]

CC1(C)C2CCC(N)(C2)C1O (stereo unspecified)
> 100 µM: [4]
inactive: [1] > 100 µM | [2] > 100 µM | [3] > 100 µM | [5] > 100 µM | [6] > 100 µM | [7] > 100 µM | [8] > 100 µM | [9] > 100 µM | [10] > 100 µM | [11] > 100 µM | [12] > 100 µM | [18] > 100 µM | [13] > 100 µM | [14] > 100 µM | [15] > 100 µM | [16] > 100 µM | [17] > 100 µM

O=[N+]([O-])/C(C(Cl)=C(Cl)Cl)=C1\NCCS1
35.6 µM: [4]
inactive: [1] 61 µM | [2] 70 µM | [3] > 100 µM | [5] 62.4 µM | [6] 18.8 µM | [7] 69.7 µM | [8] > 100 µM | [9] 31.5 µM | [10] 83.9 µM | [11] 30.2 µM | [12] > 100 µM | [18] > 100 µM | [13] 18.4 µM | [14] 56 µM | [15] > 100 µM | [16] 45.8 µM | [17] 41.1 µM
